Experimental findings from ChEMBL document CHEMBL4689842, “EUbOPEN Chemogenomics Library wave 1” (2021) are described below.

One data set deals with Fibroblast. The data set can be described thus: Incucyte cell viability with human fibroblast. The class given is toxicity, cell-based. The settings on record: 10 µM, compound concentration 10 uM.
A further data set has as its system U2OS. In words: Incucyte cell viability with U2OS. The class given is toxicity, cell-based. The settings on record: human, 10 µM, compound concentration 10 uM.
Where [1] appears, read: 6 h, replicate number 1, timepoint 6 hours.
Setting [2] is: 12 h, replicate number 1, timepoint 12 hours.
[3] abbreviates: 18 h, replicate number 1, timepoint 18 hours.
[4] abbreviates: 24 h, replicate number 1, timepoint 24 hours.
Where [5] appears, read: 0 h, replicate number 1, timepoint 0 hours.
Where [6] appears, read: 6 h, replicate number 2, timepoint 6 hours.
[7] abbreviates: 12 h, replicate number 2, timepoint 12 hours.
Where [8] appears, read: 18 h, replicate number 2, timepoint 18 hours.
Where [9] appears, read: 24 h, replicate number 2, timepoint 24 hours.
Where [10] appears, read: 0 h, replicate number 2, timepoint 0 hours.
Also: filed as whole numbers so only -1 and 0 and 1 occur.

With `CC(C)NC(=O)N1CC[C@H](NC2=Nc3cc(F)ccc3N(CC(F)F)c3ccc(Cl)cc32)C1`, the “Growth Rate” value with Fibroblast (setting [1]), in the data set with Fibroblast (setting [2]), in the data set on Fibroblast (setting [3]), in the data set with Fibroblast (setting [4]), with U2OS (setting [5]) and in the data set on U2OS (setting [1]) was 0 throughout. Also, the “Growth Rate” value amounted to 1 with U2OS (setting [6]); 0 with U2OS (setting [2]); 1 in the data set on U2OS (setting [7]); 0 with U2OS (setting [3]); 1 with U2OS (setting [8]); 0 in the data set on U2OS (setting [4]).
Consider `COC(=O)C1=C(C)NC(C)=C(C(=O)OCCCN2CCC(c3ccccc3)(c3ccccc3)CC2)[C@H]1c1cccc([N+](=O)[O-])c1` [NIGULDIPINE], for which the “Growth Rate” value stood at 0 in the data set on Fibroblast (setting [5]); 0 with Fibroblast (setting [1]); 0 in the data set on Fibroblast (setting [2]); 0 with Fibroblast (setting [3]); 1 in the data set on Fibroblast (setting [8]); 0 in the data set on Fibroblast (setting [4]). Also, the “Growth Rate” value is 1 in the data set on Fibroblast (setting [9]); 0 with U2OS (setting [5]); 0 in the data set on U2OS (setting [6]); 0 in the data set with U2OS (setting [2]); 0 in the data set on U2OS (setting [3]); 0 in the data set on U2OS (setting [4]).
On to `CC(C)CC(=O)Nc1[nH]nc2c1CN(C(=O)C1CCN(C)CC1)C2(C)C` [PHA-793887], for which the “Growth Rate” value in the data set with Fibroblast (setting [5]) is reported as 0; in the data set on Fibroblast (setting [1]), 0; with Fibroblast (setting [2]), 0; in the data set on Fibroblast (setting [3]), 0; with Fibroblast (setting [4]), 0; in the data set on U2OS (setting [5]) it was 1. In addition, the “Growth Rate” value in the data set with U2OS (setting [10]), in the data set with U2OS (setting [1]), in the data set on U2OS (setting [2]), in the data set with U2OS (setting [3]) and in the data set on U2OS (setting [4]) was 0 in each case.
For the compound `COc1ccc(-c2ccc3ncc4c(c3c2)n(-c2ccc(N3CCNCC3)c(C(F)(F)F)c2)c(=O)n4C)cn1.O=C(O)/C=C\C(=O)O` [BGT-226], the “Growth Rate” value with Fibroblast (setting [5]), in the data set with Fibroblast (setting [1]), in the data set with Fibroblast (setting [2]), with Fibroblast (setting [3]), with Fibroblast (setting [4]) and in the data set on U2OS (setting [5]) was 0 in each case. The “Growth Rate” value in the data set with U2OS (setting [1]), in the data set on U2OS (setting [2]), with U2OS (setting [3]) and in the data set with U2OS (setting [4]) was 0 in each case.
Take `Cc1ccc2c(c1)c1c(n2CCc2ccc(C)nc2)CCN(C)C1` [LATREPIRDINE]: the “Growth Rate” value in the data set with Fibroblast (setting [5]) is listed as 0; in the data set on Fibroblast (setting [1]) it was 1; in the data set on Fibroblast (setting [6]), 0; in the data set with Fibroblast (setting [2]) it was 0; in the data set on Fibroblast (setting [3]), 0; in the data set on Fibroblast (setting [4]), 0. Besides, the “Growth Rate” value came out at 0 in the data set with U2OS (setting [5]); 0 in the data set with U2OS (setting [6]); 1 in the data set on U2OS (setting [2]); 0 in the data set on U2OS (setting [3]); 1 in the data set on U2OS (setting [4]); 0 in the data set on U2OS (setting [9]).
As for `COc1cc(Nc2nccc(-c3cnn4nc(OC)ccc34)n2)cc(C(F)(F)F)c1`, the “Growth Rate” value is recorded as 0 in the data set on Fibroblast (setting [1]); 0 with Fibroblast (setting [2]); 0 with Fibroblast (setting [3]); 0 with Fibroblast (setting [4]); 1 with U2OS (setting [5]); 0 with U2OS (setting [10]). The “Growth Rate” value in the data set with U2OS (setting [1]), with U2OS (setting [2]), with U2OS (setting [3]) and with U2OS (setting [4]) was 0 throughout.
Regarding `CN(c1ccccc1CNc1nc(Nc2ccc3c(c2)CC(=O)N3)ncc1C(F)(F)F)S(C)(=O)=O`, the “Growth Rate” value in the data set with Fibroblast (setting [5]) is 1; with Fibroblast (setting [10]), 0; with Fibroblast (setting [2]), 1; in the data set on Fibroblast (setting [3]), 0; in the data set on Fibroblast (setting [8]), 1; in the data set with Fibroblast (setting [4]), 0. Also, the “Growth Rate” value with U2OS (setting [5]), in the data set with U2OS (setting [1]), in the data set on U2OS (setting [2]), in the data set on U2OS (setting [3]) and in the data set on U2OS (setting [4]) was 0 in each case.
As for `CCc1nn(CCCN2CCN(c3cccc(Cl)c3)CC2)c(=O)n1CCOc1ccccc1.Cl` [NEFAZODONE HYDROCHLORIDE], the “Growth Rate” value with Fibroblast (setting [5]) is listed as 0; in the data set with Fibroblast (setting [1]), 0; in the data set on Fibroblast (setting [2]), 0; in the data set with Fibroblast (setting [3]), 0; with Fibroblast (setting [4]), 0; in the data set with U2OS (setting [1]), 1. In addition, the “Growth Rate” value in the data set with U2OS (setting [2]) came to 0; with U2OS (setting [3]) it was 1; in the data set on U2OS (setting [8]), 0; in the data set with U2OS (setting [4]), 0.
Consider `CN1CCN(Cc2cc(NC(=O)c3ccc4c(c3)CN(c3ccccc3)CC4)cc(C(F)(F)F)c2)CC1`, for which the “Growth Rate” value in the data set with Fibroblast (setting [10]) turned out to be 1; in the data set with Fibroblast (setting [1]), 0; in the data set on Fibroblast (setting [2]) it was 0; in the data set with Fibroblast (setting [3]), 0; with Fibroblast (setting [4]), 0; with U2OS (setting [5]), 1. Further, the “Growth Rate” value in the data set with U2OS (setting [10]) is 0; in the data set with U2OS (setting [1]) it was 0; with U2OS (setting [6]) it was 1; in the data set with U2OS (setting [2]) it was 0; with U2OS (setting [3]) it was 0; with U2OS (setting [4]) it was 0.
`CNCc1ccccc1-c1csc([C@@H](C)Nc2nc(C)nc3cc(OC)c(OC)cc23)c1` [BAY-293]: the “Growth Rate” value with Fibroblast (setting [1]), in the data set on Fibroblast (setting [2]), with Fibroblast (setting [3]), with Fibroblast (setting [4]), in the data set on U2OS (setting [5]) and with U2OS (setting [1]) was 0 in each case. Also, the “Growth Rate” value in the data set on U2OS (setting [6]) came out at 1; with U2OS (setting [2]) it was 0; in the data set with U2OS (setting [3]) it was 0; in the data set on U2OS (setting [4]), 0.
For the compound `CC(C)(C)NC[C@H](O)COc1nsnc1N1CCOCC1` [TIMOLOL], the “Growth Rate” value amounted to 0 in the data set with Fibroblast (setting [5]); 1 in the data set on Fibroblast (setting [10]); 1 with Fibroblast (setting [1]); 0 in the data set with Fibroblast (setting [6]); 1 with Fibroblast (setting [2]); 0 in the data set with Fibroblast (setting [7]). The “Growth Rate” value in the data set with Fibroblast (setting [3]) worked out at 1; in the data set on Fibroblast (setting [8]), 0; in the data set with Fibroblast (setting [4]), 1; in the data set with Fibroblast (setting [9]) it was 0; in the data set with U2OS (setting [5]) it was 0; in the data set with U2OS (setting [6]), 1. Moreover, the “Growth Rate” value in the data set on U2OS (setting [7]), with U2OS (setting [3]) and in the data set with U2OS (setting [4]) was 1 in each case.
Take `C#Cc1cccc(Nc2ncnc3cc(OCCOC)c(OCCOC)cc23)c1` [ERLOTINIB]: the “Growth Rate” value with Fibroblast (setting [5]) stood at 0; in the data set with Fibroblast (setting [1]) it was 0; in the data set with Fibroblast (setting [2]), 0; with Fibroblast (setting [7]), 1; in the data set on Fibroblast (setting [3]), 0; in the data set with Fibroblast (setting [4]), 0. The “Growth Rate” value with U2OS (setting [10]) is reported as 1; in the data set with U2OS (setting [6]), 0; in the data set on U2OS (setting [2]) it was 1; with U2OS (setting [7]) it was 0; with U2OS (setting [3]), 0; in the data set on U2OS (setting [4]), 1. For the same compound, the “Growth Rate” value in the data set with U2OS (setting [9]) came out at 0.
In the case of `CN1CCN(Cc2ccc(Nc3ncc(Cl)c(Nc4ccccc4S(=O)(=O)N(C)C)n3)cc2)CC1` [DUBERMATINIB], the “Growth Rate” value in the data set with Fibroblast (setting [5]) stood at 0; in the data set with Fibroblast (setting [2]), 1; in the data set on Fibroblast (setting [7]) it was 0; in the data set with Fibroblast (setting [3]) it was 0; in the data set on Fibroblast (setting [4]), 0; with U2OS (setting [5]) it was 0. Also, the “Growth Rate” value was found to be 1 in the data set on U2OS (setting [1]), 0 in the data set with U2OS (setting [2]), 0 in the data set with U2OS (setting [3]) and 0 in the data set with U2OS (setting [4]).
For `Cc1cccc(CN2CCN(C(c3ccccc3)c3ccc(Cl)cc3)CC2)c1.Cl.Cl` (stereo not given), the “Growth Rate” value in the data set with Fibroblast (setting [5]) is recorded as 0; in the data set with Fibroblast (setting [2]), 1; in the data set on Fibroblast (setting [7]), 0; with Fibroblast (setting [3]) it was 1; with Fibroblast (setting [8]), 0; in the data set with Fibroblast (setting [4]) it was 0. Further, the “Growth Rate” value came out at 0 with U2OS (setting [5]); 1 in the data set with U2OS (setting [10]); 0 in the data set with U2OS (setting [6]); 0 in the data set on U2OS (setting [7]); 1 with U2OS (setting [3]); 0 in the data set on U2OS (setting [8]). Moreover, the “Growth Rate” value is 1 with U2OS (setting [4]) and 0 with U2OS (setting [9]).
In the case of `C=CC(=O)Nc1ccc2[nH]c(=O)n(C3CCN(Cc4ccc(-c5nc6cc[nH]c(=O)c6cc5-c5ccccc5)cc4)CC3)c2c1` [Borussertib], the “Growth Rate” value with Fibroblast (setting [5]) was 0; in the data set with Fibroblast (setting [6]) it was 0; in the data set with Fibroblast (setting [2]), 1; in the data set on Fibroblast (setting [3]), 1; with Fibroblast (setting [8]) it was 0; with Fibroblast (setting [4]), 1. Besides, the “Growth Rate” value in the data set on Fibroblast (setting [9]) worked out at 0; in the data set with U2OS (setting [10]), 1; with U2OS (setting [1]), 1; with U2OS (setting [2]), 1; with U2OS (setting [3]) it was 1; in the data set on U2OS (setting [4]), 1. The “Growth Rate” value in the data set on U2OS (setting [9]) turned out to be 0.
With `O=C(c1cc2c(cc1F)OC(c1ccc(F)cc1)(c1ccc(Cl)cc1Cl)O2)N1CCOCC1` (stereo not given), the “Growth Rate” value with Fibroblast (setting [5]) was found to be 0; in the data set on Fibroblast (setting [7]), 0; in the data set on Fibroblast (setting [3]) it was 1; with Fibroblast (setting [8]) it was 0; with Fibroblast (setting [4]) it was 1; in the data set with Fibroblast (setting [9]), 0. For the same compound, the “Growth Rate” value is given as 0 with U2OS (setting [5]); 1 in the data set with U2OS (setting [6]); 0 with U2OS (setting [2]); 0 in the data set on U2OS (setting [3]); 0 in the data set with U2OS (setting [4]).
Turning to `Cc1cc(NC(=O)c2cccc(S(F)(F)(F)(F)F)c2)cc(-n2ccn3nc(-c4cccnc4)cc23)c1` [BAY-309], the “Growth Rate” value with Fibroblast (setting [5]) amounted to 1; with Fibroblast (setting [1]), 0; with Fibroblast (setting [2]) it was 0; in the data set on Fibroblast (setting [3]), 0; with Fibroblast (setting [4]), 0; with U2OS (setting [10]), 0. Moreover, the “Growth Rate” value with U2OS (setting [1]), in the data set on U2OS (setting [2]), in the data set on U2OS (setting [3]) and with U2OS (setting [4]) was 0 in each case.
Turning to `COc1cc2ncn(-c3cc(OCc4ccccc4C(F)(F)F)c(C(N)=O)s3)c2cc1OC` [GW843682X], the “Growth Rate” value in the data set with Fibroblast (setting [5]) turned out to be 0; in the data set on Fibroblast (setting [1]), 1; in the data set on Fibroblast (setting [2]), 0; in the data set on Fibroblast (setting [3]), 0; in the data set with Fibroblast (setting [4]) it was 0; in the data set with U2OS (setting [10]) it was 0. Besides, the “Growth Rate” value in the data set on U2OS (setting [2]) turned out to be 1; in the data set with U2OS (setting [7]) it was 0; with U2OS (setting [3]) it was 0; with U2OS (setting [4]), 0.
As for `C=CC(=O)Nc1cccc(Sc2nc(Nc3ccc(N4CCN(C)CC4)cc3)ncc2Cl)c1`, the “Growth Rate” value in the data set with Fibroblast (setting [1]), with Fibroblast (setting [2]), in the data set with Fibroblast (setting [3]), with Fibroblast (setting [4]), in the data set with U2OS (setting [5]) and in the data set on U2OS (setting [1]) was 0 each time. The “Growth Rate” value with U2OS (setting [2]), in the data set on U2OS (setting [3]) and with U2OS (setting [4]) was 0 in each case.
